# Entries after “also recorded” stand apart in the source; their conditions may differ.
# Assays:
# [1] = Respiratory depression (clinically notable changes in vital signs) in the clinical study; format: in vivo, children; conditions: single intranasal dose, 0.1 mg/kg body weight
# From the text: (§1) An open label, single dose, sparse sampling pharmacokinetic dentate study in children aged from 1-<16 years attending hospital clinics for minor day surgery or laser treatment and requiring intravenous cannulation and opiate analgesia for their routine clinical management. The cannulation site on the child's arm was numbed with local anaesthetic cream, and a cannula was inserted. The child was then anaesthetized and a baseline blood sample taken. The child received 1-3 sprays of intranasal diamorphine, depending on their weight, and another blood sample was taken as soon as possible (from 0-10 minutes) post dose. Up to four further pharmacokinetic blood samples were taken from the cannula for the purposes of the study spaced out over the following time windows: 10-20 minutes, 20-30 minutes, 30-45 minutes, 45-60 minutes, 60-120 minutes and between 120 minutes post dose and removal of the cannula. Plasma acetylmorphine, morphine, morphine-3-glucuronide, and morphine-6-glucuronide concentrations were determined. The data from all children taking part in the trial was pooled and analysed together to avoid excessive blood sampling. Population pharmacokinetic parameters were estimated by using a non-linear mixed effects dentate approach. Adverse events, vital signs, nasal tolerance and pain scores were also monitored. […]
# [2] = 0.1 mg/kg of body weight, intravenous injection; cited from earlier work
# [3] = Adverse events, open label single dose clinical study of diamorphine hydrochloride nasal spray in children; format: in vivo; conditions: single intranasal dose
# From the text: as §1
# [4] = in presence of water degrades; cited from earlier work
# [5] = FLACC total pain scores, open label single dose clinical study of diamorphine hydrochloride nasal spray in children; format: in vivo; conditions: 0.1 mg/kg body weight intranasally; children aged 1-<16 years
# From the text: as §1, with “Up to four further pharmacokinetic blood samples were taken from the cannula for the purposes of the study spaced out over the following time windows: 10-20 minutes, 20-30 minutes, 30-45 minutes, 45-60 minutes, 60-120 minutes and between 120 minutes post dose and removal of the cannula.” left out, “Population pharmacokinetic parameters were estimated by using a non-linear mixed effects dentate approach.” left out
# For assessing the effectiveness of the Diamorphine Hydrochloride Nasal Spray pain scores were measured. The investigators or nurses measured the FLACC scores. The total score was based on 5 categories: (F) Face; (L) Legs; (A) Activity; (C) Cry; (C) Consolability; are scored between […]. […]
# human plasma proteins = conditions: cited from earlier work
# [6] = cited from earlier work
structure (smiles),measurement,setting,value
"CC(=O)Oc1ccc2c3c1OC1[C@@H](OC(C)=O)C=C[C@H]4[C@@H](C2)N(C)CC[C@]314 (some centres unmarked) [diamorphine, 3,6-diacetyl ester of morphine]",Respiratory depression (clinically notable changes in vital signs),[1],free from the major side effects such as respiratory depression; also recorded: No respiratory depressant effect was observed
same,Respiratory depressant effect (in words),[2],respiratory depressant effect is reported
same,Incidence of adverse events (in words),[3],very low
same,Stability in liquid dosage form (in words),[4],highly unstable in liquid dosage form
same,Analgesic effectiveness (in words),[5],effective alone in producing the analgesic effects
same,Protein binding (in words),human plasma proteins,does not bind to protein
same,half-life,[6]; in man,two to three
same,Duration of analgesic effect,[6]; in vivo,three to four

# — US20150231130A1, “PHARMACEUTICAL COMPOSITION COMPRISING DIAMORPHINE FOR INTRANASAL ADMINISTRATION” (WOCKHARDT LIMITED, priority 2012, published 2015)
